≈ marks a conversion by molar mass, not a printed value.
Experiments:
[1] = tested on: Plasma
Description: Anticoagulation activity in plasma (unknown origin) assessed as concentration required for twice the activated partial thromboplastin time

[2] = Cmax in iv dosed rat; assay type: ADME, organism-based; settings: in vivo
[3] = Tmax in iv dosed rat; assay type: ADME, organism-based; settings: in vivo
[4] = Solubility of compound at pH 8; assay type: physicochemical; settings: buffer
[5] = Volume of distribution at steady state in iv dosed rat; assay type: ADME, organism-based; settings: in vivo, read-out: Vdss
[6] = AUC in iv dosed rat; assay type: ADME, organism-based; settings: in vivo
[7] = Half life in iv dosed rat; assay type: ADME, organism-based; settings: in vivo

Structure (SMILES)	2aPTT [1]	also measured
CC[C@@H](C(=O)Nc1ccc(C(N)=O)c(F)c1)n1cc(OC)c(-c2cc(Cl)ccc2-n2cc(C(F)(F)F)nn2)cc1=O	3.8 µM	
CN(Cc1cc(=O)[nH]c2ccc(Cl)cc12)C(=O)[C@H](Cc1ccc(NC(=O)C2CCCC2)cc1)NC(=O)c1ccc(C(=O)O)s1	11.2 µM	
CC1CC1C(=O)Nc1ccc(C[C@H](NC(=O)c2ccc(C(=O)O)s2)C(=O)N(C)Cc2cc(=O)[nH]c3ccc(Cl)cc23)cc1 (stereo not given in full)	6.8 µM	Cmax [2]: 2120 ng/mL; Tmax [3]: 1.2 min; solubility [4]: Soluble; Vd [5]: 40 L/kg; AUC [6]: 313 ng·h/mL; half-life [7]: 48.6 min
CN(Cc1cc(=O)[nH]c2ccc(Cl)cc12)C(=O)[C@H](Cc1ccc(NC(=O)C2CCCCC2)cc1)NC(=O)c1ccc(C(=O)O)s1	14 µM	
CN(Cc1cc(=O)[nH]c2ccc(Cl)cc12)C(=O)[C@H](Cc1ccc(NC(=O)C2CC2)cc1)NC(=O)c1ccc(C(=O)O)s1	6.9 µM	
COC(=O)Nc1ccc(C(=O)N[C@@H](Cc2ccccc2)C(=O)N(C)Cc2cc(=O)[nH]c3ccc(Cl)cc23)cc1	16.7 µM	solubility ([4]; read-out: solubility): 17.3 µg/mL (≈ 31.6 µM)
CN(Cc1cc(=O)[nH]c2ccc(Cl)cc12)C(=O)[C@H](Cc1ccc(NC(=O)C2CC2(C)C)cc1)NC(=O)c1ccc(C(=O)O)s1 (stereo not given in full)	9.8 µM	
CN(Cc1cc(=O)[nH]c2ccc(Cl)cc12)C(=O)[C@H](Cc1ccc(NC(=O)C2CCC2)cc1)NC(=O)c1ccc(C(=O)O)s1	13.3 µM	

From ChEMBL document CHEMBL5608162, “Design, synthesis and biological evaluation of 6-chloro-quinolin-2-one derivatives as novel FXIa inhibitors” (Bioorg Med Chem Lett, 2024)
